In patent US7183267B2, “β-lactamase inhibitors and methods of use thereof” (priority 2003, dated 2007):
Where two headings read alike, the source gives them in different places.

What was measured:
[1] = molecular target: T1, TEM-1 β-lactamase (Escherichia coli, UniProt P62593); assay: TEM-1 β-lactamase inhibition assay (nitrocefin hydrolysis, 486 nm); format: biochemical
Protocol: (§1) The inhibition of TEM-1 β-lactamase was determined spectrophotometrically. B-lactamase activity was followed by measuring the hydrolysis of nitrocefin, [3-(2,4-dinitrostyryl)-(6R, 7R)-7-(2-thienylacetamido)-ceph-3-em-4-carboxylic acid, E-isomer], (Calbiochem, San Diego, Calif., USA) at 486 nm. Inhibition assays were performed at 25° C. in 50 mM sodium phosphate, 5% DMSO, pH 7.0. […] Inhibitor was added to the enzyme and incubated for ten minutes before the addition of substrate. Inhibition constants (Ki) for the inhibitors are obtained at the desired temperature and solvent conditions by measuring the rate of substrate hydrolysis at increasing amounts of inhibitors.
(§2) The competitive inhibition of β-lactamase was determined spectrophotometrically using a Varian (Walnut Creek, Calif.) Cary 100 UV-Visible spectrophotometer. β-lactamase activity was followed by measuring the hydrolysis of nitrocefin, [3-(2,4-dinitrostyryl)-(6R, 7R)-7-(2-thienylacetamido)-ceph-3-em-4-carboxylic acid, E-isomer], (Calbiochem, San Diego, Calif.) at 486 nm. Inhibition assays were performed at 25° C. in 50 mM sodium phosphate, 5% DMSO, pH 7.0. […] Penicillin G (Sigma, St. Louis, Mo.) was also used as a substrate to determine KM and kcat.
(§3) Inhibitor was added to protein and incubated for ten minutes before the addition of substrate. Inhibition constants were determined by measuring the loss of P-lactamase activity with increasing inhibitor concentrations and fitting the data to standard equations for competitive inhibition.
(§4) These methods can also be used to express and assay recombinant TEM-1 variant of β-lactamase.

[2] = molecular target: T2, AmpC β-lactamase (Escherichia coli, UniProt P00811); assay: AmpC β-lactamase competitive inhibition assay (nitrocefin hydrolysis); format: biochemical
T2 construct: made in house; host or cells: E. coli BL21 (DE3)
Protocol: The gene for AmpC β-lactamase (accession number P00811) was obtained from Escherichia coli K12 strain W3110 (American Type Culture Collection, Rockville Md.). E. coli was grown and plasmid (F-lacIq lacPL8 ampC::lambdacI+) was isolated via Qiagen (Valencia, Calif.) mini prep. The gene for AmpC was amplified in two pieces via polymerase chain reaction, ligated and purified by agarose gel electrophoresis. The ligated gene was inserted into a pET200 vector via a TOPO reaction (Invitrogen, Carlsbad, Calif.).
BL21 (DE3) (Invitrogen) cells were transformed by heat-shock with the prepared plasmid. These cells were grown to an OD600 of 0.8 at 37° C. Isopropylthiogalactoside (IPTG) was added to 1 mM, incubation temperature decreased to 25° C. and the cells were grown for an additional 18 hours. After 18 hours, the E. coli was pelleted by centrifugation, and discarded. The growth media was concentrated and dialyzed versus 100 mM Tris, pH 7.0. This solution was run through an equilibrated Q-resin column, and washed with excess 100 mM Tris, pH 7.0.
as §2, §3

[3] = molecular target: T2, AmpC β-lactamase; conditions: binding to AmpC; ITC
Protocol: (§5) Isothermal titration calorimetry was performed on a high-precision VP-ITC titration calorimeter (Microcal Inc., Northampton, Mass.). β-Lactamase solutions were titrated with inhibitors in 50 mM sodium phosphate, 2% DMSO, pH 7.0, with β-lactamase concentrations ranging from 15 to 25 μM and inhibitor concentrations ranging from 300 to 1000 μM. The heat evolved from each injection was obtained by integrating the calorimetric signal. Heat of binding was obtained as the difference between the heat of reaction and the heat of inhibitor dilution. Data were analyzed using Origin 7.0 (OriginLab Corporation, Northampton, Mass.).
Isothermal titration calorimetry was undertaken to determine the thermodynamic characteristics of binding to AmpC β-lactamase.

[4] = molecular target: T1, TEM-1 β-lactamase; assay: Isothermal titration calorimetry, binding to TEM-1 β-lactamase (Example 17); conditions: ITC
Protocol: as §5, §4
Also shown are the results obtained for β-lactamase variant TEM-1.

[5] = molecular target: β-lactamase mutant R244S (Escherichia coli, UniProt P62593, R241S); format: biochemical; conditions: number higher than 1 reflects a loss of potency against mutant
Protocol: as §1
(§6) Three of the most important mutations are M69I, R244S and E104K.

[6] = molecular target: β-lactamase mutant E104K (Escherichia coli, UniProt P62593, E102K); format: biochemical; conditions: number higher than 1 reflects a loss of potency against mutant
Protocol: as §1, §6

[7] = molecular target: β-lactamase mutant M69I (Escherichia coli, UniProt P62593, M67I); format: biochemical; conditions: number higher than 1 reflects a loss of potency against mutant
Protocol: as §1, §6

[8] = Ki, 25° C., 50 mM sodium phosphate, 5% DMSO, pH 7.0, enzyme 5 nM, nitrocefin 167 μM

Compound	Ki [1, 8] [µM]	Ki [2] [µM]	ΔG [3] [kcal/mol]	ΔH [3] [kcal/mol]	−TΔS [3] [kcal/mol]	Ki ([1]; Ki, TEM-1 β-lactamase) [µM]	ΔG [4] [kcal/mol]	ΔH [4] [kcal/mol]	−TΔS [4] [kcal/mol]	Ki [1] [µM]	Loss of potency: ratio of the inhibitory constant between mutant and wild type (Potencywt/Potencymutant), R244S [5]	Loss of potency: ratio of the inhibitory constant between mutant and wild type (Potencywt/Potencymutant), E104K [6]	Loss of potency: ratio of the inhibitory constant between mutant and wild type (Potencywt/Potencymutant), M69I [7]
O=C(Oc1cccc(B(O)O)c1)c1c(Cl)cccc1Cl [Compound (6a), 3-(2,6-Dichlorophenylcarbonyloxy)phenyl boronic acid]	28 ± 2.1	1.53	-7.757	-6.538	-1.219								
O=C(Oc1ccc(OC(=O)c2ccc(B(O)O)cc2F)c(Cl)c1)c1ccc(B(O)O)cc1F [Compound (7a), 4-Borono-2-fluorobenzoic acid 2-chloro-1,4-phenylene ester]	122 ± 10	0.873	-7.314	-9.936	2.622								
O=C(OCc1ccccc1COC(=O)c1cc(B(O)O)cc([N+](=O)[O-])c1)c1cc(B(O)O)cc([N+](=O)[O-])c1 [Compound (10a), 3-Borono-5-nitrobenzoic acid 1,2-benzenedimethanol ester]		0.457	-8.59	-4.149	-4.441	9.7	-7.183	-0.982	-6.201				
O=C(Oc1cc(OC(=O)c2cc(B(O)O)cc([N+](=O)[O-])c2)cc(OC(=O)c2cc(B(O)O)cc([N+](=O)[O-])c2)c1)c1cc(B(O)O)cc([N+](=O)[O-])c1 [Compound (12a), Tris(3-borono-5-nitrobenzoic acid), 1,3,5-trihydroxybenzene ester]		1.94	-7.231	-1.47	-5.761		-6.468	-0.69	-5.778	6.9			
O=C(OCc1ccccc1)c1cccc(B(O)O)c1 [Compound F1001]	104	1.79	-6.83	-0.644	-6.186								
CC1(C)[C@H](C(=O)O)N2C(=O)C[C@H]2S1(=O)=O [Sulbactam, sulbactam, reference compound]											93	1	15
C[C@]1(Cn2ccnn2)[C@H](C(=O)O)N2C(=O)C[C@H]2S1(=O)=O [Tazobactam, tazobactam, reference compound]											105	1	31
